Reference: patent US11987647B2, “Cyclic cell-penetrating peptides with one or more hydrophobic residues” (Ohio State Innovation Foundation, priority 2018, dated 2024)
The star is where a group is joined. Decanoyl = CCCCCCCCCC(=O)*

Columns and labels:
Type in all cases: cell-based
HeLa cells [1] = assay: Cytosolic entry efficiency of NF-labelled peptides by flow cytometry; settings: for Cellular Entry Efficiency In 10% FBS: 2 h, relative to CPP12 (100%)
Protocol: All of the peptides were labeled with naphthofluorescein (NF) at the Gln side chain through a long, flexible linker, miniPEG-Lys. HeLa cells were treated with 5 μM peptide for 2 h in the presence of 10% FBS and the cytosolic entry of the peptides was quantitated by flow cytometry analysis.
To determine cellular uptake efficiency of the CPPs disclosed herein, HeLa cells were cultured in 12-well plates (1.5×10^5 cells per well) overnight. The cells were incubated for 2 h with […] naphthofluorescein (NF)-labelled peptide in cellular media. At the end of incubation, the cells were washed with DPBS twice, detached from the plate with 0.25% trypsin, diluted into clear DMEM, pelleted at 250 g for 5 min, washed twice with DPBS, resuspended in DPBS, and analyzed on a BD FACS LSR II flow cytometer. For NF-labelled peptides, a 633-nm laser was used for excitation and the fluorescence emission was analyzed in the APC channel. Absolute cellular uptake efficiency was determined by comparing the concentration (via fluorescence intensity) of the CPP in the cytosol to the concentration in the extracellular medium. Relative cellular uptake efficiency was determined by comparing the cytosolic concentration of the CPP to that cytosolic concentration of the control CPP cyclo(FΦRRRRQ).

HeLa cells [2] = assay: Cytotoxicity by the MTT assay; settings: no label, up to 40 μM concentration
Text: CPP1-15 (no label) was used as a representative and tested against HeLa cells for potential cytotoxicity by the MTT assay.

HeLa cells [3] = assay: Cellular entry by live-cell confocal imaging of FITC-labelled peptides; settings: 5 μM FITC-labelled peptide, 2 h
Protocol: CPP1-15 and CPP1-20 were labeled with FITC via a miniPEG-Lys linker. HeLa cells were treated with 5 μM peptide for 2 h, washed, and imaged by live-cell confocal imaging. […] Additional experiments are ongoing to further examine their mechanism of cell entry.

HeLa cells [4] = assay: Cytosolic entry efficiency of NF-labelled peptides by flow cytometry; settings: for Cellular Entry Efficiency In 1% FBS: relative to CPP12 (100%)

Substance: cyclo(Lys^DecaRRRRQ) (cyclo(K(Decanoyl)RRRRQ); SMILES CCCCCCCCCC(=O)NCCCC[C@@H]1NC(=O)[C@H](CCC(N)=O)NC(=O)[C@H](CCCNC(=N)N)NC(=O)[C@H](CCCNC(=N)N)NC(=O)[C@H](CCCNC(=N)N)NC(=O)[C@H](CCCNC(=N)N)NC1=O) [CPP1-15]
- sensitivity to serum concentration (HeLa cells [1]; 10% vs 1% FBS, compared with CPP9 or CPP12): lower sensitivity to serum concentration
- Cellular Entry Efficiency In 10% FBS (HeLa cells [1]; Table 4, 5 μM NF-labelled peptide): 76 ± 21%
- Cellular Entry Efficiency In 10% FBS (HeLa cells [1]; Table 7, 5 μM NF-labelled peptide): 76 ± 21%
- CPP activity compared with CPP1-4 (in words) (HeLa cells [1]; variant of CPP1-4): slightly increased the CPP activity
- cytotoxicity (HeLa cells [2]): did not show significant cytotoxicity
- cellular entry (confocal imaging) (HeLa cells [3]): entered HeLa cells efficiently
- Cellular Entry Efficiency In 1% FBS (HeLa cells [4]; Table 4, NF-labelled peptide): 44 ± 11%
- Cellular Entry Efficiency In 1% FBS (HeLa cells [4]; Table 7, NF-labelled peptide): 44 ± 11%
- cytosolic entry efficiency (HeLa cells [4]; reduced serum concentration (1% FBS), CPP12 most active): 43%
